Columns and labels:
liver microsomal enzyme = assay: Enzyme inductive effect (shortening of hexobarbital sleeping time in Wistar female rats); type: in vivo; settings: for Mean duration of sleeping ± S.E.: 60 mg./kg. p.o., 24 hours later hexobarbital 40 mg./kg. i.v., female Wistar rats, control 19.4 ± 1.88
Description: As reference substances, phenobarbital and phenacetine were used in the experiments. The pharmacological tests were carried out as follows:
To investigate the enzyme inductive effect, Wistar female rats, each weighing 40 to 50 g. were treated with pure solvent, or with a dosage of 60 mg./kg. of phenobarbital or the compound to be tested, respectively. 24 hours after this treatment 40 mg./kg. of hexobarbital were administered intravenously into the animals. The reduction of the elimination period and the liver enzyme induction was expressed as the shortening of the duration of sleeping.

central nervous system [1] = assay: Central nervous system effects (anticonvulsive, rotarod muscle relaxation, sedative tests); type: in vivo; settings: in the dosage utilized
[2] = LD50 p.o. (acute toxicity); settings: in vivo, po, species not given
[3] = Antipyretic effect (rectal temperature after yeast suspension and pyrago in male rats); type: in vivo; settings: 40 mg./kg. orally, yeast and pyrago fever, recorded for 5 hours
Description: To test the antipyretic effect, a 15% yeast suspension was administered to male rats each weighing 180 ±10 g. No food was given to the animals, they could consume, however, arbitrary amount of water. 16 hours after the administration of yeast the rectal body temperature of the animals was taken, and the animals were treated with pyrago in an intravenous dosage of 50 M bact./animal. The compound to be tested was administered orally into the animals, thereafter the change in rectal temperature both for the treated and the control animals was recorded for 5 hours, using an "Elab" type electrothermometer. Phenacetine, used as reference substance, and the compounds of the invention were administered in dosages of 40 mg./kg. body weight.

central nervous system [4] = settings: known effects at the test animals; cited from earlier work

Row | Structure (SMILES) | LD50 [2] [mg/kg] | Decrease of temperature [3] [°C] | also measured
1 | O=C(c1ccccc1)c1ccc(N2CCOCC2)c([N+](=O)[O-])c1 [Example B2, 3-nitro-4-morpholino-benzophenone] | 1200 | – | Mean duration of sleeping ± S.E. (liver microsomal enzyme; * = p>0.05 (below a significance level of 5 %)): 14.6 ± 1.65 min; inductive effect (liver microsomal enzyme; in words, compared with phenobarbital): the same as that of phenobarbital; effect on the central nervous system (central nervous system [1]): no effect on the central nervous system
2 | CC(C)CN(CC(C)C)c1ccc(C(=O)c2ccccc2)cc1[N+](=O)[O-] [Example B9, 3-Nitro-4-(N.N-diisobutylamino)-benzophenone] | > 3000 | -1.0 | –
3 | CC[N+]1(C)CCN(c2ccc(C(=O)c3ccccc3)cc2[N+](=O)[O-])CC1 [Example B11, 3-nitro-4-(N-methyl-piperazino)-benzophenone ethobromide] | > 3000 | -1.1 | –
4 | CCOc1ccc(NC(C)=O)cc1 [Phenacetine, reference compound] | – | -1.1 | –
5 | CCC1(c2ccccc2)C(=O)NC(=O)NC1=O [Phenobarbital, reference compound] | – | – | effects on the central nervous system (central nervous system [4]): significant effects on the central nervous system, which manifests at the test animals in ataxia, sedatio and anticonvulsive effect; Mean duration of sleeping ± S.E. (liver microsomal enzyme; * = (below a significance level of 5 %)): 14.2 ± 1.88 min

From US4064121A, “Substituted nitrobenzophenone derivatives and a process for the preparation thereof” (Richter Gedeon Vegyeszeti Gyar Rt., priority 1973, dated 1977)
